Measured values from patent US11464770B2, “Anticancer pharmaceutical composition” (NATIONAL CANCER CENTER, priority 2016, dated 2022).
Where two headings read alike, the source gives them in different places.

Tests used:
[1] = system: lung cancer cell lines (e.g. NCI-H23, NCI-H1229); assay: Cell based assay, cell viability (CellTiter-Glo), lung cancer cell lines; conditions: Homo sapiens
Experimental: (§1) Commercially available bladder cancer, prostate cancer, lung cancer, breast cancer, blood cancer, pancreatic cancer, colorectal cancer, brain cancer, neuroblastoma, melanoma, liver cancer, cervical carcinoma, ovarian cancer, renal cancer, and papilloma cell lines were each treated with trypsin-EDTA and cultured, followed by being seeded in each well of a 96 well plate. After 24 hours of treatment at constant temperature, the respective cells were treated with the candidate compound so that a final concentration became 0 to 2 μM. The treated cells were additionally cultured for 72 hours, and cell viability was measured by using an ATP detection method (CellTiter-Glo® Luminescent Cell Viability Assay, Promega).

brain cancer cell lines = assay: Cell based assay, cell viability (CellTiter-Glo), brain cancer cell lines; conditions: Homo sapiens
Experimental: as §1, with “After 24 hours of treatment at constant temperature, the respective cells were treated with the candidate compound so that a final concentration became 0 to 2 μM.” left out

renal cancer cell lines = assay: Cell based assay, cell viability (CellTiter-Glo), renal cancer cell lines; conditions: Homo sapiens; ACHN cells
Experimental: as §1

[2] = A549 cells, 72 hours treatment, CellTiter-Glo, read-out: IC50, lung cancer cell line A549
[3] = DMS 114 cells, 72 hours treatment, CellTiter-Glo, read-out: IC50, lung cancer cell line DMS 114
[4] = MRC-5 cells, 72 hours treatment, CellTiter-Glo, read-out: IC50
[5] = NCI-H23 cells, 72 hours treatment, CellTiter-Glo, read-out: IC50, lung cancer cell line NCI-H23
[6] = NCI-H460 cells, 72 hours treatment, CellTiter-Glo, read-out: IC50, lung cancer cell line NCI-H460
[7] = NCI-H522 cells, 72 hours treatment, CellTiter-Glo, read-out: IC50, lung cancer cell line NCI-H522
[8] = NCI-H1299 cells, 72 hours treatment, CellTiter-Glo, read-out: IC50, lung cancer cell line NCI-H1299
[9] = NCI-H1437 cells, 72 hours treatment, CellTiter-Glo, read-out: IC50, lung cancer cell line NCI-H1437
[10] = U138-MG, U-138 MG cell line, read-out: IC50, Brain cancer cell line U-138 MG
[11] = T98G cell line, read-out: IC50, Brain cancer cell line T98G
[12] = U-251 MG cell line, read-out: IC50, Brain cancer cell line U-251 MG
[13] = Lung cancer cell line A549, 72 hours, cell viability (CellTiter-Glo), read-out: IC50, A549
[14] = Lung cancer cell line DMS 114, 72 hours, cell viability (CellTiter-Glo), read-out: IC50, DMS 114
[15] = Lung cancer cell line NCI-H23, 72 hours, cell viability (CellTiter-Glo), read-out: IC50, NCI-H23
[16] = Lung cancer cell line NCI-H460, 72 hours, cell viability (CellTiter-Glo), read-out: IC50, NCI-H460
[17] = Lung cancer cell line NCI-H522, 72 hours, cell viability (CellTiter-Glo), read-out: IC50, NCI-H522
[18] = Lung cancer cell line NCI-H1299, 72 hours, cell viability (CellTiter-Glo), read-out: IC50, NCI-H1299
[19] = Lung cancer cell line NCI-H1437, 72 hours, cell viability (CellTiter-Glo), read-out: IC50, NCI-H1437
[20] = MRC-5 (listed under Lung cancer cell line), 72 hours, cell viability (CellTiter-Glo), read-out: IC50, MRC-5

Row | SMILES | IC50 [1, 2] | IC50 [1, 3] | IC50 [1, 4] | IC50 [1, 5] | IC50 [1, 6] | IC50 [1, 7] | IC50 [1, 8] | IC50 [1, 9] | IC50 (brain cancer cell lines; [10]) | IC50 (brain cancer cell lines; [11]) | IC50 (brain cancer cell lines; [12]) | IC50 (renal cancer cell lines) | IC50 [1, 13] | IC50 [1, 14] | IC50 [1, 15] | IC50 [1, 16] | IC50 [1, 17] | IC50 [1, 18] | IC50 [1, 19] | IC50 [1, 20]
1 | CC(=O)c1c(SCc2cccc(C#N)c2)[nH]c2c(Br)ccc(Cl)c2c1=O [Compound 27, 3-(((3-acetyl-8-bromo-5-chloro-4-oxo-1,4-dihydroquinolin-2-yl)thio)methyl)benzonitrile] | > 2 µM | > 2 µM | > 2 µM | > 2 µM | > 2 µM | > 2 µM | > 2 µM | > 10 µM | > 10 µM | > 10 µM | > 2 µM | > 2 µM |  |  |  |  |  |  |  | 
2 | CSc1c(C(C)=O)c(=O)c2c(Cl)ccc(Br)c2n1S(=O)(=O)c1ccc(C(C)(C)C)cc1 [Compound 40, 3-acetyl-8-bromo-1-((4-(tert-butyl)phenyl)sulfonyl)-5-chloro-2-(methylthio)quinolin-4(1H)-one] | > 2 µM | > 2 µM | > 2 µM | > 2 µM | > 2 µM | > 2 µM | > 2 µM | > 10 µM | > 10 µM | > 10 µM | > 2 µM | > 2 µM |  |  |  |  |  |  |  | 
3 | CC(C)C(=O)c1c([S+]([O-])Cc2ccc(SC(F)(F)F)cc2)[nH]c2c(F)ccc(F)c2c1=O (stereo not drawn) [Compound 85, 5,8-difluoro-3-isobutyryl-2-((4-((trifluoromethyl)thio)benzyl)sulfinyl)quinolin-4(1H)-one] | > 2 µM | > 2 µM | > 2 µM | > 2 µM | > 2 µM | > 2 µM | > 2 µM | > 10 µM | > 10 µM | > 10 µM | > 2 µM | > 2 µM |  |  |  |  |  |  |  | 
4 | O=C(c1c([S+]([O-])Cc2ccc(SC(F)(F)F)cc2)[nH]c2c(Br)ccc(Cl)c2c1=O)C1CC1 (stereo not drawn) [Compound 101, 8-bromo-5-chloro-3-(cyclopropanecarbonyl)-2-((4-((trifluoromethyl)thio)benzyl)sulfinyl)quinolin-4(1H)-one] |  |  |  |  |  |  |  |  | > 2 µM | > 10 µM | > 2 µM | > 2 µM | > 2 µM | > 2 µM | 1.33 µM | > 2 µM | > 2 µM | > 2 µM | > 10 µM | > 2 µM
5 | CC(=O)c1c([S+]([O-])Cc2nonc2C)[nH]c2c(Br)ccc(Cl)c2c1=O (stereo not drawn) [Compound 106, 3-acetyl-8-bromo-5-chloro-2-(((4-methyl-1,2,5-oxadiazol-3-yl)methyl)sulfinyl)quinolin-4(1H)-one] |  |  |  |  |  |  |  |  | > 10 µM | > 10 µM | > 2 µM | > 2 µM | > 2 µM | > 2 µM | > 2 µM | > 2 µM | > 2 µM | > 2 µM | > 10 µM | > 2 µM
6 | CC(=O)c1c(SCc2ccccc2)nc2c(Br)ccc(Cl)c2c1O [Compound 52, 1-(2-(benzylthio)-8-bromo-5-chloro-4-hydroxyquinolin-3-yl)ethan-1-one] | > 2 µM | > 2 µM | > 2 µM | > 2 µM | > 2 µM | > 2 µM | > 2 µM | > 10 µM | > 10 µM | > 10 µM | > 2 µM | > 2 µM |  |  |  |  |  |  |  | 
7 | COCSc1[nH]c2c(Br)ccc(Cl)c2c(=O)c1C(C)=O [Compound 61, 3-acetyl-8-bromo-5-chloro-2-((methoxymethyl)thio)quinolin-4(1H)-one] | > 2 µM | > 2 µM | > 2 µM | > 2 µM | > 2 µM | > 2 µM | > 2 µM | > 10 µM | > 10 µM | > 10 µM | > 2 µM | > 2 µM |  |  |  |  |  |  |  | 
8 | CC(=O)c1c([S+]([O-])Cc2ccccc2)nc2c(Br)ccc(Cl)c2c1O (stereo not drawn) [Compound 4] | 1.97 µM | > 2 µM | 0.91 µM | 0.92 µM | 1.65 µM | > 2 µM | 1.4 µM | > 2 µM | 1.81 µM | > 10 µM | 1.22 µM | > 2 µM |  |  |  |  |  |  |  | 
9 | CCS(=O)(=O)n1c([S+](C)[O-])c(C(C)=O)c(=O)c2c(Cl)ccc(Br)c21 (stereo not drawn) [Compound 39, 3-acetyl-8-bromo-5-chloro-1-(ethylsulfonyl)-2-(methylsulfinyl)quinolin-4(1H)-one] | > 2 µM | > 2 µM | > 2 µM | > 2 µM | > 2 µM | > 2 µM | > 2 µM | > 10 µM | > 10 µM | > 10 µM | > 2 µM | > 2 µM |  |  |  |  |  |  |  | 
